Data on five molecules can be found in patent US12679878B2, “CRF2 receptor agonists and their use in therapy” (SANOFI, priority 2020, dated 2026).

Starred links: 1 amine or outer side, 2 acyl side, 3 side chain; linkers in the order of their positions; H or OH if unused. Non-standard residues stand in square brackets, D forms with d. Residues, ends and D or L forms follow the SMILES beside them. Groups on a side chain read outwards from the residue. *: point of attachment. C18 diacid = O=C(O)CCCCCCCCCCCCCCCCC(=O)*; γGlu = O=C(O)[C@H](CCC(=O)[*:2])N[*:1]; AEEA = NCCOCCOCC(=O)O; Aib = CC(C)(N)C(=O)O

As usually defined, the EC50 is the concentration giving half of the maximal effect. By Emax is commonly meant the greatest response seen or fitted, relative to the assay's reference.

For one experiment, the target named is T1, CRF1R receptor (Homo sapiens, UniProt P34998).
T1 construct: host or cells: CHO-K1 clone 2
T1 sequence (P34998 24-415): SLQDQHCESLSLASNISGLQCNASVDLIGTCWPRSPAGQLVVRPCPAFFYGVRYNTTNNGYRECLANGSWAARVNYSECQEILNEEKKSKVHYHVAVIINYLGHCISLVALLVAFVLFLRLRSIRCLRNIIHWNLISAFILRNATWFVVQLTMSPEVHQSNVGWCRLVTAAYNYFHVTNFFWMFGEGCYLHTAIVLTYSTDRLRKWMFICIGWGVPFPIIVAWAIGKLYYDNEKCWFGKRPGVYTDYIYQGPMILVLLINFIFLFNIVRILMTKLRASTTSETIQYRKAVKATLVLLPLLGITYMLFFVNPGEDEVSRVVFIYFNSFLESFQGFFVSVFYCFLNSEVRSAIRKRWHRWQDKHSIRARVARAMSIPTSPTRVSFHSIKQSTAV
The experiment is described as follows: cAMP activity at anti-target CRF1R, CHO-K1 cell line clone 2 (Example 19.10). Type of experiment: cell-based. To be noted: CRF1R CHO-K1 clone 2; for EC50: 0% HSA, read-out: EC50 [nM] 0% HSA; for Emax: 100% = Sauvagine at 100 nM. In outline: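 The cAMP read-out used the same protocol as the previous assay, except that Sauvagine at 100 nM set the 100% activation control. Cells were CHO-K1 clone 2 overexpressing CRF1R, cultured in F12 medium with 10% FBS and G418 and stored frozen until use.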

The target of the next experiment is T2, human CRF2α receptor (Homo sapiens, UniProt Q13324).
T2 construct: expressed in transfected cells; host or cells: TeloHEAC
T2 sequence (Q13324 1-411): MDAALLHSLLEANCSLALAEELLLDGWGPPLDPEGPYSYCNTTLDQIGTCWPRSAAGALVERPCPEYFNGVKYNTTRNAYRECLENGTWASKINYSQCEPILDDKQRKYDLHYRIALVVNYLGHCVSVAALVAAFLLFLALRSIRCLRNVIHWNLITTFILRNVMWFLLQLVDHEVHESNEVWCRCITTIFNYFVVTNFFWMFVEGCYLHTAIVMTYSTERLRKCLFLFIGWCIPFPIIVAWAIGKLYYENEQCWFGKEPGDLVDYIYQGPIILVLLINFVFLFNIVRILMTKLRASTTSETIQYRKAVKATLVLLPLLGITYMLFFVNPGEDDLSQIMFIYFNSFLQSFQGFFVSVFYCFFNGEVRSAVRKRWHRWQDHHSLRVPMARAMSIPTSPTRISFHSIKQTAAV
Description: cAMP agonism at human CRF2 α receptor in TeloHEAC cells (Example 7). To be noted: cAMP HTRF, TeloHEAC cells stably expressing human CRF2 α, 0% HSA; read-out: EC50 [nM], 0% HSA. Type of experiment: cell-based. The essentials: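 Percent activation was referenced to 1000 nM UCN2 (100%), and EC50 values taken as concentrations giving half of maximal response. The read-out was a homogeneous time-resolved fluorescence cAMP kit, fluorescence ratio 665/620 nm. Thawed cells (2000/well) saw compound for 30 min at RT in buffer with 2 mM IBMX and 0%/0.1% HSA.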
For orientation: Time-resolved FRET reads energy transfer from a long-lived donor to a nearby acceptor.

In the case of `CC[C@H](C)[C@H](N)C(=O)N[C@H](C(=O)N[C@@H](CC(C)C)C(=O)N[C@@H](CO)C(=O)N[C@@H](CC(C)C)C(=O)N[C@@H](CC(=O)O)C(=O)N[C@H](C(=O)N1CCC[C@H]1C(=O)N[C@H](C(=O)N[C@@H](CCCCN)C(=O)N[C@@H](CC(C)C)C(=O)N[C@@H](CCCCNC(=O)COCCOCCNC(=O)COCCOCCNC(=O)CC[C@H](NC(=O)CCCCCCCCCCCCCCCCC(=O)O)C(=O)O)C(=O)N[C@@H](CCC(N)=O)C(=O)N[C@H](C(=O)N[C@@H](CC(C)C)C(=O)N[C@@H](CC(C)C)C(=O)N[C@@H](CCCCN)C(=O)N[C@@H](CCC(N)=O)C(=O)N[C@@H](CCC(=O)O)C(=O)N[C@@H](CCCNC(=N)N)C(=O)N[C@@H](CCC(N)=O)C(=O)N[C@@H](CCCCN)C(=O)NC(C)(C)C(=O)N[C@@H](CCC(N)=O)C(=O)N[C@@H](CCCNC(=N)N)C(=O)N[C@@H](CCC(N)=O)C(=O)N[C@@H](CCCCN)C(=O)N[C@@H](C)C(=O)N[C@@H](CCC(=O)O)C(=O)N[C@H](C(=O)N[C@@H](CC(N)=O)C(=O)N[C@@H](CCCCN)C(=O)N[C@@H](CCC(N)=O)C(=O)N[C@H](C(=O)N[C@@H](CC(C)C)C(=O)N[C@@H](C)C(=O)N[C@@H](CCC(N)=O)C(=O)N[C@H](C(N)=O)C(C)C)[C@@H](C)CC)[C@@H](C)O)[C@@H](C)CC)[C@@H](C)CC)C(C)C)C(C)C` [compound 108] (H-IVLSLDVPIKLK([AEEA-AEEA-γGlu-C18 diacid])QILLKQERQK[Aib]QRQKAETNKQILAQV-NH2; N-terminus assumed), on CRF1R receptor, the EC50 was > 100 nM and the Emax is -2%. Also, at human CRF2α receptor, the EC50 is 0.23 nM.

`CC[C@H](C)[C@H](N)C(=O)N[C@H](C(=O)N[C@@H](CC(C)C)C(=O)N[C@@H](CO)C(=O)N[C@@H](CC(C)C)C(=O)N[C@@H](CC(=O)O)C(=O)N[C@H](C(=O)N1CCC[C@H]1C(=O)N[C@H](C(=O)N[C@@H](CCCCN)C(=O)N[C@@H](CC(C)C)C(=O)N[C@@H](CCCCNC(=O)COCCOCCNC(=O)COCCOCCNC(=O)CC[C@H](NC(=O)CCCCCCCCCCCCCCCCC(=O)O)C(=O)O)C(=O)N[C@@H](CCC(N)=O)C(=O)N[C@H](C(=O)N[C@@H](CC(C)C)C(=O)N[C@@H](CC(C)C)C(=O)N[C@@H](CCCCN)C(=O)N[C@@H](CCC(N)=O)C(=O)N[C@@H](CCC(=O)O)C(=O)N[C@@H](CCCNC(=N)N)C(=O)N[C@@H](CCC(N)=O)C(=O)N[C@@H](CCCCN)C(=O)NC(C)(C)C(=O)N[C@@H](CCC(N)=O)C(=O)N[C@@H](CCCNC(=N)N)C(=O)N[C@@H](CCC(=O)O)C(=O)N[C@@H](CCCCN)C(=O)N[C@@H](C)C(=O)N[C@@H](CCC(=O)O)C(=O)N[C@H](C(=O)N[C@@H](CC(N)=O)C(=O)N[C@@H](CCCCN)C(=O)N[C@@H](CCC(N)=O)C(=O)N[C@H](C(=O)N[C@@H](CC(C)C)C(=O)N[C@@H](C)C(=O)N[C@@H](CCC(N)=O)C(=O)N[C@H](C(N)=O)C(C)C)[C@@H](C)CC)[C@@H](C)O)[C@@H](C)CC)[C@@H](C)CC)C(C)C)C(C)C` [compound 109] (H-IVLSLDVPIKLK([AEEA-AEEA-γGlu-C18 diacid])QILLKQERQK[Aib]QREKAETNKQILAQV-NH2): on CRF1R receptor, the EC50 is > 100 nM and the Emax is 1.1%. Also, on human CRF2α receptor, the EC50 came out at 0.95 nM.

In the case of `CC[C@H](C)[C@H](N)C(=O)N[C@H](C(=O)N[C@@H](CC(C)C)C(=O)N[C@@H](CO)C(=O)N[C@@H](CC(C)C)C(=O)N[C@@H](CC(=O)O)C(=O)N[C@H](C(=O)N1CCC[C@H]1C(=O)N[C@H](C(=O)N[C@@H](CCCCN)C(=O)N[C@@H](CC(C)C)C(=O)N[C@@H](CCCCNC(=O)COCCOCCNC(=O)COCCOCCNC(=O)CC[C@H](NC(=O)CCCCCCCCCCCCCCCCC(=O)O)C(=O)O)C(=O)N[C@@H](CCC(N)=O)C(=O)N[C@H](C(=O)N[C@@H](CC(C)C)C(=O)N[C@@H](CC(C)C)C(=O)N[C@@H](CCCCN)C(=O)N[C@@H](CCC(N)=O)C(=O)N[C@@H](CCC(=O)O)C(=O)N[C@@H](CCCNC(=N)N)C(=O)N[C@@H](CCC(N)=O)C(=O)N[C@@H](CCCCN)C(=O)NC(C)(C)C(=O)N[C@@H](CCC(N)=O)C(=O)N[C@@H](CCCNC(=N)N)C(=O)N[C@@H](CCC(N)=O)C(=O)N[C@@H](CCC(N)=O)C(=O)N[C@@H](C)C(=O)N[C@@H](CCC(=O)O)C(=O)N[C@H](C(=O)N[C@@H](CC(N)=O)C(=O)N[C@@H](CCCCN)C(=O)N[C@@H](CCC(N)=O)C(=O)N[C@H](C(=O)N[C@@H](CC(C)C)C(=O)N[C@@H](C)C(=O)N[C@@H](CCC(N)=O)C(=O)N[C@H](C(N)=O)C(C)C)[C@@H](C)CC)[C@@H](C)O)[C@@H](C)CC)[C@@H](C)CC)C(C)C)C(C)C` [compound 110] (H-IVLSLDVPIKLK([AEEA-AEEA-γGlu-C18 diacid])QILLKQERQK[Aib]QRQQAETNKQILAQV-NH2; N-terminus assumed), at CRF1R receptor, the concentration for a half-maximal effect (EC50) was > 100 nM and the Emax amounted to 5.4%. Also, the EC50 on human CRF2α receptor is 0.18 nM.

`CC[C@H](C)[C@H](N)C(=O)N[C@H](C(=O)N[C@@H](CC(C)C)C(=O)N[C@@H](CO)C(=O)N[C@@H](CC(C)C)C(=O)N[C@@H](CC(=O)O)C(=O)N[C@H](C(=O)N1CCC[C@H]1C(=O)N[C@H](C(=O)N[C@@H](CCCCN)C(=O)N[C@@H](CC(C)C)C(=O)N[C@@H](CCCCNC(=O)COCCOCCNC(=O)COCCOCCNC(=O)CC[C@H](NC(=O)CCCCCCCCCCCCCCCCC(=O)O)C(=O)O)C(=O)N[C@@H](CCC(N)=O)C(=O)N[C@H](C(=O)N[C@@H](CC(C)C)C(=O)N[C@@H](CC(C)C)C(=O)N[C@@H](CCCCN)C(=O)N[C@@H](CCC(N)=O)C(=O)N[C@@H](CCC(=O)O)C(=O)N[C@@H](CCCNC(=N)N)C(=O)N[C@@H](CCC(N)=O)C(=O)N[C@@H](CCCCN)C(=O)NC(C)(C)C(=O)N[C@@H](CCC(N)=O)C(=O)N[C@@H](CCCNC(=N)N)C(=O)N[C@@H](CCC(=O)O)C(=O)N[C@@H](CCCCN)C(=O)N[C@@H](C)C(=O)N[C@@H](CCC(=O)O)C(=O)N[C@@H](CCCCN)C(=O)N[C@@H](CC(N)=O)C(=O)N[C@@H](CCCCN)C(=O)N[C@@H](CCC(N)=O)C(=O)N[C@H](C(=O)N[C@@H](CC(C)C)C(=O)N[C@@H](C)C(=O)N[C@@H](CCC(N)=O)C(=O)N[C@H](C(N)=O)C(C)C)[C@@H](C)CC)[C@@H](C)CC)[C@@H](C)CC)C(C)C)C(C)C` [compound 116] (H-IVLSLDVPIKLK([AEEA-AEEA-γGlu-C18 diacid])QILLKQERQK[Aib]QREKAEKNKQILAQV-NH2; N-terminus assumed): on CRF1R receptor, the EC50 is > 100 nM and the Emax stood at 0.8%. Besides, the EC50 on human CRF2α receptor worked out at 0.7 nM.

Take `CC[C@H](C)[C@H](N)C(=O)N[C@H](C(=O)N[C@@H](CC(C)C)C(=O)N[C@@H](CO)C(=O)N[C@@H](CC(C)C)C(=O)N[C@@H](CC(=O)O)C(=O)N[C@H](C(=O)N1CCC[C@H]1C(=O)N[C@H](C(=O)N[C@@H](CCCCN)C(=O)N[C@@H](CC(C)C)C(=O)N[C@@H](CCCCNC(=O)COCCOCCNC(=O)COCCOCCNC(=O)CC[C@H](NC(=O)CCCCCCCCCCCCCCCCC(=O)O)C(=O)O)C(=O)N[C@@H](CCC(N)=O)C(=O)N[C@H](C(=O)N[C@@H](CC(C)C)C(=O)N[C@@H](CC(C)C)C(=O)N[C@@H](CCCCN)C(=O)N[C@@H](CCC(N)=O)C(=O)N[C@@H](CCC(=O)O)C(=O)N[C@@H](CCCNC(=N)N)C(=O)N[C@@H](CCC(N)=O)C(=O)N[C@@H](CCCCN)C(=O)NC(C)(C)C(=O)N[C@@H](CCC(N)=O)C(=O)N[C@@H](CCCNC(=N)N)C(=O)N[C@@H](CCC(N)=O)C(=O)N[C@@H](CCC(N)=O)C(=O)N[C@@H](C)C(=O)N[C@@H](CCC(=O)O)C(=O)N[C@@H](CCCCN)C(=O)N[C@@H](CC(N)=O)C(=O)N[C@@H](CCCCN)C(=O)N[C@@H](CCC(N)=O)C(=O)N[C@H](C(=O)N[C@@H](CC(C)C)C(=O)N[C@@H](C)C(=O)N[C@@H](CCC(N)=O)C(=O)N[C@H](C(N)=O)C(C)C)[C@@H](C)CC)[C@@H](C)CC)[C@@H](C)CC)C(C)C)C(C)C` [compound 117] (H-IVLSLDVPIKLK([AEEA-AEEA-γGlu-C18 diacid])QILLKQERQK[Aib]QRQQAEKNKQILAQV-NH2): on CRF1R receptor, the EC50 is > 100 nM and the Emax is -6%. In addition, the EC50 at human CRF2α receptor worked out at 0.11 nM.
